# According to US11510928B2, “Use of mirtazapine in the treatment of inflammatory disorders, autoimmune disease and PBC” (UTI Limited Partnership, priority 2017, dated 2022):
# Key:
# [1] = tested on: PBC patients; assay: THIN database cohort study of PBC patients: decompensation, liver transplant and mortality free survival by drug usage; assay type: in vivo, human
# Source text: We conducted a cohort study using The Health Improvement Network (THIN). THIN is one of the largest medical databases in the UK^8, consisting of prospectively gathered electronic medical records from over 11.1 million patients^8. […] Data from participant general practitioners across the UK is exported to the THIN administrators and database, which is updated every 3 months^11. The THIN database records demographic data and clinical events using Read codes, prescription medications, and laboratory values^12.
# We identified patients with PBC Read code “J6160” from April 1974 until May 2007. This cohort was followed until May 2012. We excluded patients having overlap syndrome with autoimmune hepatitis or primary sclerosing cholangitis. The first code of PBC identified in the THIN database was considered the index (ie. diagnosis) date. FIG. 10 provides a flow diagram illustrating the selection of the study population. The primary outcome was the first occurrence of one of the three events following the diagnosis of PBC: (1) decompensation of cirrhosis (ascites, spontaneous bacterial peritonitis, hepatic encephalopathy, hepatorenal syndrome, variceal bleeding, jaundice, or hepatocellular carcinoma); (2) liver transplantation; or (3) death.
# Read codes were used to identify patients with chronic depression disorder. Chronic depression was defined as follows: (1) never diagnosed with chronic depression; (2) past depression diagnosis prior to 90 days from PBC diagnosis; and (3) current depression diagnosis if a diagnosis was made within 90 days before or after a PBC diagnosis. Using THIN database therapy files, we assessed the impact of anti-depressant medications on outcomes of PBC patients (mortality, decompensation, and liver transplant).
# For each anti-depressant medication, use was defined as follows: (1) never used the medication; (2) past use as defined as a previous code for medication use prior to 90 days of PBC diagnosis; and (3) current medication user if the medication code was identified within 90 days before or after a PBC diagnosis. We assessed the effect of each anti-depressant medication on study outcomes separately. Antidepressants were classified as typical or atypical and stratified accordingly. Atypical antidepressants include: Agomelatine, Bupropion and Mirtazapine. While typical antidepressants include the following groups: (a) Selective Serotonin Reuptake Inhibitors (SSRI): Citalopram, Escitalopram, Fluoxetine, Fluvoxamine, Paroxetine and Sertraline; (b) […] (SNRI): Desvenlafaxine, Duloxetine, Minacipran and Venlafaxine; (c) Serotonin modulators: Nefazodone, Trazodone and Vilazodone; (d) Tricyclics and tetracyclics: Amitriptyline, Amoxapine, Clomipramine, Desipramine, Doxepin, Imipramine, Maprotiline, Nortriptyline and Protriptyline, Trimiprramine; (e) Monamine oxidase inhibitors: Isocarboxazid, Phenelzine, Selegiline and Tranylcypromine.
# We assessed age at diagnosis of PBC, sex, and the presence of coexisting liver disease (ie. chronic hepatitis either viral, alcoholic, or fatty liver disease; yes/no). Smoking status was classified (current, former, never smoked, or unknown status) at the time of PBC diagnosis, alcohol consumption was classified (current, former, never consumed alcohol, or unknown status) at PBC diagnosis. Ursodeoxycholic acid (UDCA) usage (ever/never recorded) was also determined.
# In our primary analysis, we assessed demographic, clinical, and medication variables in the PBC cohort according to depression status. Where appropriate, we used the Fisher Exact test or Chi-Square test for categorical data, and the Kruskal-Wallis or Student's t-test for continuous data. Univariate analysis using Log Rank test and multivariate Cox Proportional Regression models were used to assess the impact of depression or anti-depressant medications on PBC outcomes as defined by death, decompensated cirrhosis, or liver transplant. […]
# [2] = tested on: hepatic immune cells; assay: Hepatic immune cell phenotyping by flow cytometry after mirtazapine treatment; assay type: in vivo, mouse
# Method: Male 8-10 week old C57BL/6 mice (Jackson Labs, Bar Harbor, Me.) were used. All procedures were approved by the University of Calgary Animal Care Committee (protocol numbers AC14-0129 and AC14-0128) and were performed in accordance with the guidelines of the Canadian Council on Animal Care. To delineate the impact of mirtazapine treatment upon liver immune cell numbers and phenotype, and upon cytokine/chemokine networks within the liver, mice were treated with mirtazapine 1-20 mg/kg intraperitoneally^13-15. Mirtazapine was suspended in 1% aqueous solution of Tween 80, whereas the control group received 1% aqueous solution of Tween 80. […] The detailed experimental protocols, lists of antibodies and reagents used, flow cytometry gating, and immune cell phenotyping strategies, are described herein. […] Isolated hepatic leukocytes were subjected to direct immunofluorescence analyses using multicolor flow cytometry staining as previously described. Samples were acquired either using a FACScan flow cytometer (Becton Dickinson, Mountain View, Calif.) or AttuneTM Acoustic Focusing flow cytometer (Applied Biosytems, […], Burlington, ON). Data were analyzed using FlowJo® software (Treestar, Ashland, Oreg.). Gating proceeded as follows: gating of live cells and exclusion of duplet cells followed by gating on forward scatter (FSC) and side scatter (SSC) areas to identify regions appropriate to define live leukocytes. Within the leukocyte gate, the following cell subsets were identified: Regulatory T cells (CD4^+CD25^+Foxp3^+), monocytes (CD11b^+Ly6C^+), dendritic cells (CD11b^+CD11c^+), B Cells (CD3^-IgM^+), B1a B cells (IgM^+CD5^+CD^11b^+), B1b B cells (IgM^+CD5^-CD11b^+), and B2 B cells as (IgM^+CD5^-CD11b^-). Fluorescence-minus-one (FMO) controls were used for the accurate designation of cells with fluorescence above background levels. Appropriate isotype controls were used to determine the specificity of all antibodies used. Cell numbers were calculated based on the percentage of cells found in the gate of interest, and total cell numbers isolated from each liver.
# [3] = tested on: peripheral blood and splenic B cells; assay: Peripheral blood and splenic B cells by flow cytometry (Example 6); assay type: in vivo, mouse; conditions: 20 mg/kg ip, 5 hrs post-treatment
# Method: Male C57BL/6 mice (age 8-10 wks) were treated with mirt (20 mg/kg ip) or vehicle and livers removed 3-5 hrs later for B cell isolation and characterization by flow cytometry (FACS). Similarly peripheral blood and splenic B cells numbers were determined by FACS. Liver cytokine and chemokine levels were measured by Luminex®.
# [4] = usage prior to PBC diagnosis vs none
# [5] = 20 mg/kg ip, 3 hrs post-treatment
smiles,measurement,setting,value
CN1CCN2c3ncccc3Cc3ccccc3C2C1 (stereo not shown) [Mirtazapine],"Protective effect against liver decompensation, transplantation, or death",[1]; PBC cohort,over four-fold protective effect
same,Requirement of liver transplant,[1]; PBC patients who had ever used the drug,None of the PBC patients who had ever used mirtazapine required liver transplant
same,"Multivariate model-2 HR (include age, gender, alcohol, URSO, depression, mirtazapine)",[1]; current usage (after PBC diagnosis) vs none,0.23
same,"Univariate HR, 10-year decompensation, liver transplant and mortality free survival",[1]; current usage vs none,0.22
same,"Adjusted HR, mortality","[1]; current usage, outcome assessed separately",0.22
same,"Adjusted HR, liver decompensation","[1]; current usage, outcome assessed separately, not significant",0.22
same,"Adjusted HR, decompensated cirrhosis, liver transplant and mortality","[1]; sensitivity analysis: only patients using UDCA (n=793), current usage",0.21
same,"Multivariate model-2 HR (include age, gender, alcohol, URSO, depression, mirtazapine)",[1]; [4],0.94
same,"Univariate HR, 10-year decompensation, liver transplant and mortality free survival",[1]; [4],0.84
same,Cellular expression levels of FOXP3 in hepatic Tregs (MFI),[2]; [5],enhanced cellular expression levels of FOXP3
same,Hepatic CD11b+CD11c+ dendritic cells as % of total CD11b+ cells,[2]; [5],relatively enriched
same,Numbers of Tregs (CD4+CD25+FOXP3+) within the liver,[2]; [5],significantly increased numbers of Tregs
same,Hepatic numbers of CD73 expressing T cells (CD3+CD73+),[2]; 5 hr (FIG. 11),increases hepatic numbers of CD73 expressing T cells
same,CXCR3+CD73+ B1a cells in the liver,[2]; 5 hrs post-treatment,significantly increased recruitment
same,Expression intensity of FOXP3 per cell (MFI),[2]; 5 hrs post-treatment,significantly increased
same,Hepatic B1a cells,[2]; 5 hrs post-treatment,significant increase
same,Hepatic B1b cells,[2]; 5 hrs post-treatment,remained unchanged
same,Hepatic B2 cells,[2]; 5 hrs post-treatment,decrease
same,Increase in hepatic numbers of CD4+CD25+FOXP3+ T cells (Tregs),[2]; 5 hrs post-treatment,~2 fold
same,Reduction of hepatic LY6Chi monocyte population,[2]; 5 hrs post-treatment,~2.5 fold
same,Total hepatic leukocyte numbers (CD45+),[2]; 5 hrs post-treatment,did not alter total overall hepatic leukocyte numbers
same,Total numbers of hepatic monocytes (CD11b+LY6C+),[2]; 5 hrs post-treatment,significant reduction
same,Hepatic numbers of repair monocytes (CD11b+Ly6Clow),[2]; 5 hrs post-treatment (FIG. 4H),significantly reduces
same,CXCL10 expression in hepatic monocytes and dendritic cells (MFI),"[2]; flow cytometry, vs vehicle",increased CXCL10 expression
same,Hepatic CD11b+Ly6Chi (inflammatory) monocytes,"[2]; pilot study, 20 mg/kg, 4 hrs",rapid striking reduction
same,Hepatic CD11b+Ly6Clo (anti-inflammatory/repair) monocyte numbers,"[2]; pilot study, 20 mg/kg, 4 hrs",no change
same,Peripheral blood B cells (as % of total CD45+ leukocytes),[3],highly significant drop
same,Splenic B cell numbers,[3],paralleled by similar changes
